The values below come from paper PMC9246869, “Allosteric inhibition of PPM1D serine/threonine phosphatase via an altered conformational state” (Nature Communications, 2022).

Values joined by “and” are separate entries in the source; they are usually repeats but may differ in a detail not shown here. Equal values may be shown once.

This experiment concerns the target T1, PPM1DΔhinge (Homo sapiens, UniProt O15297, DEL155-163/G166S/M164G/T165G).
T1 construct: PPM1D1–154-GGS-167–420 (PPM1D∆hinge); His(6)-SUMO (N, cleaved yes); made in house; host or cells: E. coli BL21 (DE3)
T1 sequence (O15297 with tags, fused parts or gaps DEL155-163/M164G/T165G/G166S): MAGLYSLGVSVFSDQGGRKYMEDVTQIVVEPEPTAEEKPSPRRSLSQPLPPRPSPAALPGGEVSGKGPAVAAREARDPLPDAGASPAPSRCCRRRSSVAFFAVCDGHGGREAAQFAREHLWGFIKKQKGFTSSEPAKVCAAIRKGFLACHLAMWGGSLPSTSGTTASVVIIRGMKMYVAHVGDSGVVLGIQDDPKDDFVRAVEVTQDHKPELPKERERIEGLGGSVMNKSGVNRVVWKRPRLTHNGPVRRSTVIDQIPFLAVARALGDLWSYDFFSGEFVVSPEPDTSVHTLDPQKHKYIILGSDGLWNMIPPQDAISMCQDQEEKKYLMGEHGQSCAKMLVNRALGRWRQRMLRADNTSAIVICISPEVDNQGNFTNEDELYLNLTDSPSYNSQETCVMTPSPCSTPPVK
In words: Differential scanning fluorimetry (DSF). The experiment is classed as binding. The following applies: PPM1D Dhinge, in °C (unit assumed). The method, then:
The purified protein constructs were mixed in the assay buffer containing 25 mM HEPES pH 7.5, 10 mM MgCl2, 150 mM NaCl. The sample preparation for the DSF assay included incubating the protein constructs (final concentration 0.2–0.4 mg/mL) with either DMSO alone (control) or with 40 µM GSK2830371 for 30 min before the addition of the Sypro orange dye (final concentration 10×). The final reaction volume of 10 µL was pipetted into a 384 multi-well clear plate (Light Cycler 480), sealed using a foil and spun down at 1000 × g for 2 min. The fluorescence emission intensity of the Sypro Orange dye was monitored in a LightCycler-480 instrument by running the Protein Melt program. The program was run in a continuous acquisition mode from 25 °C to 95 °C with a ramp rate of 0.06 °C/s (with 10 acquisitions/°C). The data (first derivative of the fluorescence signal as a function of temperature) was analyzed using the LightCycler-480 software for measuring the Tm values with and without the compound. A separate control with buffer alone and buffer with compound was run in the same plate to subtract out the potential interactions of the buffer components and/or the compound with the dye.

Regarding `Cc1ncc(Cl)cc1NCc1ccc(C(=O)N[C@@H](CC2CCCC2)C(=O)NC2CC2)s1` [GSK2830371], under “average of 4 trials”, the “DSF melting temperature with GSK2830371, Average” value is 55.5129. Further, the “DSF melting temperature with GSK2830371” value (individual trials) is 55.7617 and 55.9693 and 55.1773 and 55.1434.
